The values that follow come from patent publication US5576419A, “Mild solid-phase synthesis of aligned branched triple-helical peptides” (Regents of the University of Minnesota, priority 1995, dated 1996).

A short description of series [1]: CD thermal transition (triple-helix melting), molar ellipticity at 225 nm. The series is classed as physicochemical. The conditions noted are these: [θ] at 225 nm; for Tm (triple-helical melt): 15-85 °C, 1-5% aqueous HOAc, pH 2.4. Here is the method:
Edman degradation sequence analysis was performed on an Applied Biosystems 477A Protein Sequencer/120A Analyzer for both solid-phase and "embedded" (non-covalent) sequencing as described by C. G. Fields et al., Anal. Biochem. 203, 245 (1992) and C. G. Fields et al., Peptide Res. 6, 39 (1993), which are incorporated herein by reference. Fulvene-piperidine concentrations (301 nm) and scanning UV spectra (200-320 nm) were determined with a BECKMAN DU-70 Spectrophotometer. Amino acid analyses were performed on a BECKMAN 6300 Analyzer with a sulfated polystyrene cation-exchange column (0.4 cm×25 cm). Peptides were hydrolyzed with 6N aqueous HCl at 110° C. for 18-48 h. Electrospray mass spectrometric (ES-MS) methods have been described by C. G. Fields et al., Peptide Res. 6, 39 (1993), which is incorporated herein by reference. Fast atom bombardment (FAB) MS was performed on a VG 7070E-HF with a glycerol matrix and laser desorption time-of-flight (LD-TOF) MS with both a breadboard and prototype matrix-assisted TOF mass spectrometer from Millipore Corporation (Milford, Mass.) with a sinapinic acid matrix [saturated solution of 10 mg/mL sinapinic acid dissolved in acetonitrile-H2 O (1:3) containing 0.1% TFA]. THPs were ^3 H-labeled by reductive methylation [N. Jentoft et al., J. Biol. Chem. 254, 4359 (1979)] with NaCNBH3 and [^3 H]formaldehyde, desalted over a Sephadex G-50 column (50×1.5 cm) in PBS, pH 7.4, and analyzed by size-exclusion chromatography (SEC). CD spectroscopy was performed on a Jasco 710 spectropolarimeter using a 100 or 200 μL, 0.1 mm cell. The THP concentrations (determined spectrophotometrically) in 1-5% aqueous HOAc, pH 2.4 were [THP-1]=0.16 mM, [THP-2]=0.084 mM, [THP-3]=0.068 mM, and [THP-4]=0.015 mM. Spectra were recorded by accumulating 5 scans at 0.5 nm intervals (response of 1 sec). Thermal transitions were examined by measuring the molar ellipticity ([θ]) at 225 nm from 15°-85° C.

The test system of series [2] is K1735M4 tumor cell. As to the kind of experiment: Melanoma cell spreading on peptide-coated plates. The conditions noted are these: for cell areas averaged (cell spreading): [THP-2]=0.9 μM, [SSP]=2.1 μM, [GPP*]=1.4 μM. The series is classed as cell-based, mouse. Here is the method:
(§1) K1735M4 tumor cell adhesion and spreading assays were as described previously [M. K. Chelberg et al., J. Cell Biol. 111, 261 (1990)] with minor alterations. Peptides were dissolved in PBS and adsorbed directly onto 96-well polystyrene Immulon 1 plates (Dynatech Laboratories Inc., Chantlily, Va.) overnight at 37° C. Nonspecific binding sites were blocked with 5 mg/mL bovine serum albumin in adhesion media [Dulbecco's modified Eagle's medium containing 20 mM 4-(2-hydroxyethyl)-1-piperazineethanesulfonic acid] for 2 h at 37° C. Tumor cells were released from tissue culture flasks with 37° C. PBS containing 10 mM EDTA and washed several times with adhesion media. Cells were labeled overnight with 1 μCi/mL [^3 H]thymidine (New England Nuclear, Boston, Mass.) for adhesion assays. Cells were added to the plate wells at a density of 50,000 cells/mL in a total volume of 100 μL and adhered for 1 h at 37° C. For adhesion assays wells were washed several times with adhesion media and remaining cells lysed and radioactivity determined as described [M. K. Chelberg et al., J. Cell Biol. 111, 261 (1990)]. For spreading assays wells were fixed and stained using DiffQuik reagents (Baxter) and photographed with a Nikon MF-15 camera mounted on a Nikon Diaphot inverted microscope at 200× magnification. Cell spreading was quantitated by an Optomax System IV image analyzer equipped with a Hitachi Monitor. The efficiency of peptide adsorption to the Immulon plates was determined as described [M. K. Chelberg et al., J. Cell Biol. 111, 261 (1990)] using ^3 H- or ^125 I-labeled peptide.

The test system of series [3] is K1735M4 tumor cell. Kind of series: Melanoma cell adhesion to peptide-coated Immulon plates. As to conditions: for EC50: coated peptide 0.1-300 μM, cells adhered 1 h at 37 °C, one mole = three peptide chains, read-out: Half maximal melanoma cell adhesion (peptide concentration). The format is cell-based, mouse. The procedure: as §1

Bounds are passed on as bounds.

Take “(Gly-Pro-Hyp)3 -Gly-Val-Lys-Gly-Asp-Lys-Gly-Asn-Pro-Gly-Trp-Pro-Gly-Ala-Pro [THP-4]”: in series [1], the “Tm (triple-helical melt)” value stood at 35.0 °C.
Take “(Gly-Pro-Hyp)8 -Gly-Glu-Phe-Tyr-Phe-Asp-Leu-Arg-Leu-Lys-Gly-Asp-Lys [THP-1]”: in series [1], the “Tm (triple-helical melt)” value was 53.0 °C.
Consider “(Gly-Pro-Hyp)8 -Gly-Val-Lys-Gly-Asp-Lys-Gly-Asn-Pro-Gly-Trp-Pro-Gly-Ala-Pro [THP-2]”, for which the “Cell spreading, comparison in words” value in series [2] (THP-2 versus SSP and GPP*) is reported as “more extensive”. The “cell areas averaged (cell spreading)” value in series [2] came out at 0.048 mm^2 /μM peptide. Besides, in series [3] (THP-2 versus SSP), the “increase in melanoma cell adhesion activity compared with the α1(IV) 1263-1277 sequence alone” value worked out at 100 fold. Moreover, the EC50 in series [3] amounted to 1120 nM. The “midpoint of low temperature transition (aggregation)” value in series [1] (5% aqueous HOAc, pH 2.4, shown by SEC to be aggregation) was found to be 23.5 °C. Moreover, in series [1], the “Tm (triple-helical melt)” value was 58.5 °C.
In the case of (Gly-Pro-Hyp)8 [THP-3], the “cell areas averaged (cell spreading)” value in series [2] was determined as 0.017 mm^2 /μM peptide. Further, the EC50 in series [3] is more than 100000 nM. The “Tm (triple-helical melt)” value in series [1] is 42.5 °C.
